Results from patent US8362015B2, “Aminoacyl prodrug derivatives and medicaments for treatment of thromboembolic disorders” (Bayer Intellectual Property GmbH, priority 2006, dated 2013).
Structures can show the parent of a compound that is named as a salt.

Experiments:
[1] = Stability in buffer at various pH values (HPLC, unchanged test substance); assay type: physicochemical; details: acetonitrile/buffer 1:1
Description: 0.3 mg of the test substance is weighed into a 2 ml HPLC vial and 0.5 ml of acetonitrile is added. The substance is dissolved by putting the sample vessel in an ultrasonic bath for about 10 seconds. Then 0.5 ml of the respective buffer solution is added, and the sample is again treated in the ultrasonic bath.
Buffer solutions employed: • pH 4.0: 1 liter of Millipore water is adjusted to pH 4.0 with 1 N hydrochloric acid; • pH 7.4: 90 g of sodium chloride, 13.61 g of potassium dihydrogen phosphate and 83.35 g of 1 M sodium hydroxide solution are made up to 1 liter with Millipore water and then diluted 1:10.
5 μl portions of the test solution are analysed by HPLC for their content of unchanged test substance every hour over a period of 24 hours at 25° C. The percentage areas of the appropriate peaks are used for quantification.
Agilent 1100 with DAD (G1314A), binary pump (G1312A), autosampler (G1329A), column oven (G1316A), thermostat (G1330A); column: Kromasil 100 C18, 60 mm×2.1 mm, 3.5 μm; column temperature: 30° C.; eluent A: water+5 ml of perchloric acid/liter, eluent B: acetonitrile; gradient: 0-1.0 min 98% A, 2% B→1.0-9.0 min 2% A, 98% B; 9.0-13.0 min 2% A, 98% B; 13.0-13.5 min 98% A, 2% B; 13.5-15.0 98% A, 2% B; flow rate: 0.75 ml/min; UV detection: 210 nm.
The ratios of the peak areas (F) at the respective time points in relation to the peak areas at the starting time are shown in Table 2 for representative exemplary embodiments: […]

[2] = Determination of the solubility in dilute hydrochloric acid (pH 4); assay type: physicochemical; details: aqueous buffer, thermodynamic from solid, room temperature, shaken 24 h
Description: The test substance is suspended in water or dilute hydrochloric acid (pH 4). This suspension is shaken at room temperature for 24 h. After ultracentrifugation at 224 000 g for 30 min, the supernatant is diluted with DMSO and analysed by HPLC. A two-point calibration plot of the test compound in DMSO is used for quantification.
Agilent 1100 with DAD (G1315A), quat. pump (G1311A), autosampler CTC HTS PAL, degasser (G1322A) and column thermostat (G1316A); column: Kromasil C18, 60×2.1 mm, 3.5 μm; temperature: 30° C.; eluent A: water+5 ml of perchloric acid/liter, eluent B: acetonitrile; flow rate: 0.7 ml/min; gradient: 0-0.5 min 98% A, 2% B; ramp 0.5-4.5 min 10% A, 90% B; 4.5-6 min 10% A, 90% B; ramp 6.5-6.7 min 98% A, 2% B; 6.7-7.5 min 98% A, 2% B.

SMILES	% test substance after 4 h [F(t = 4 h) × 100/F(t = 0 h)] ([1]; buffer pH 4, 25° C.)	% test substance after 24 h [F(t = 24 h) × 100/F(t = 0 h)] ([1]; buffer pH 4, 25° C.)	% test substance after 4 h [F(t = 4 h) × 100/F(t = 0 h)] ([1]; buffer pH 7.4, 25° C.)	% test substance after 24 h [F(t = 24 h) × 100/F(t = 0 h)] ([1]; buffer pH 7.4, 25° C.)	solubility at 24 h [2]
CC(C)[C@H](N)C(=O)SCCCC(=O)N(C[C@H]1CN(c2ccc(N3CCOCC3=O)cc2)C(=O)O1)C(=O)c1ccc(Cl)s1 [Example 8, S-(5-{[(5-Chloro-2-thienyl)carbonyl]({(5S)-2-oxo-3-[4-(3-oxomorpholin-4-yl)phenyl]-1,3-oxazolidin-5-yl}methyl)amino}-4-oxobutyl)(2S)-2-amino-3-methylbutanethioate hydrochloride]	100%	100%	86%	48%	–
O=C(NCCCCC(=O)N(C[C@H]1CN(c2ccc(N3CCOCC3=O)cc2)C(=O)O1)C(=O)c1ccc(Cl)s1)[C@@H]1CCCN1 [Example 11, N-(5-{[(5-Chloro-2-thienyl)carbonyl]({(5S)-2-oxo-3-[4-(3-oxomorpholin-4-yl)phenyl]-1,3-oxazolidin-5-yl}methyl)amino}-5-oxopentyl)-L-prolineamide hydrochloride]	101%	101%	100%	99%	–
C[C@H](N)C(=O)SCCCCC(=O)N(C[C@H]1CN(c2ccc(N3CCOCC3=O)cc2)C(=O)O1)C(=O)c1ccc(Cl)s1 [Example 7, S-(5-{[(5-Chloro-2-thienyl)carbonyl]({(5S)-2-oxo-3-[4-(3-oxomorpholin-4-yl)phenyl]-1,3-oxazolidin-5-yl}methyl)amino}-5-oxopentyl)(2S)-2-aminopropanethioate hydrochloride]	100%	101%	97%	84%	> 500 µg/mL
NCCCC[C@H](N)C(=O)SCCCCC(=O)N(C[C@H]1CN(c2ccc(N3CCOCC3=O)cc2)C(=O)O1)C(=O)c1ccc(Cl)s1 [Example 6, S-(5-{[(5-Chloro-2-thienyl)carbonyl]({(5S)-2-oxo-3-[4-(3-oxomorpholin-4-yl)phenyl]-1,3-oxazolidin-5-yl}methyl)amino}-5-oxopentyl)(2S)-2,6-diaminohexanethioate dihydrochloride]	99%	99%	90%	53%	–
NCCCC[C@H](N)C(=O)NCCCCC(=O)N(C[C@H]1CN(c2ccc(N3CCOCC3=O)cc2)C(=O)O1)C(=O)c1ccc(Cl)s1 [Example 14, N-(5-{[(5-Chloro-2-thienyl)carbonyl]({(5S)-2-oxo-3-[4-(3-oxomorpholin-4-yl)phenyl]-1,3-oxazolidin-5-yl}methyl)amino}-5-oxopentyl)-L-lysinamide hydrochloride]	100%	100%	98%	88%	1900 µg/mL

Results, then the compound that gave them:

% test substance after 4 h [F(t = 4 h) × 100/F(t = 0 h)] ([1]; buffer pH 4, 25° C.)	% test substance after 24 h [F(t = 24 h) × 100/F(t = 0 h)] ([1]; buffer pH 4, 25° C.)	% test substance after 4 h [F(t = 4 h) × 100/F(t = 0 h)] ([1]; buffer pH 7.4, 25° C.)	% test substance after 24 h [F(t = 24 h) × 100/F(t = 0 h)] ([1]; buffer pH 7.4, 25° C.)	solubility at 24 h [2]	SMILES
100%	101%	99%	93%	> 3000 µg/mL	N[C@@H](Cc1c[nH]cn1)C(=O)NCCCCC(=O)N(C[C@H]1CN(c2ccc(N3CCOCC3=O)cc2)C(=O)O1)C(=O)c1ccc(Cl)s1 [Example 12, N-(5-{[(5-Chloro-2-thienyl)carbonyl]({(5S)-2-oxo-3-[4-(3-oxomorpholin-4-yl)phenyl]-1,3-oxazolidin-5-yl}methyl)amino}-5-oxopentyl)-L-histidinamide hydrochloride]
100%	101%	100%	100%	> 3500 µg/mL	CC(C)[C@H](N)C(=O)OCCCCC(=O)N(C[C@H]1CN(c2ccc(N3CCOCC3=O)cc2)C(=O)O1)C(=O)c1ccc(Cl)s1 [Example 3, hydrochloride]
100%	100%	92%	77%	–	CC(C)[C@H](N)C(=O)SCCCCC(=O)N(C[C@H]1CN(c2ccc(N3CCOCC3=O)cc2)C(=O)O1)C(=O)c1ccc(Cl)s1 [Example 4, S-(5-{[(5-Chloro-2-thienyl)carbonyl]({(5S)-2-oxo-3-[4-(3-oxomorpholin-4-yl)phenyl]-1,3-oxazolidin-5-yl}methyl)amino}-5-oxopentyl)(2S)-2-amino-3-methylbutanethioate hydrochloride]
101%	101%	99%	94%	–	NCC(=O)OCCCCC(=O)N(C[C@H]1CN(c2ccc(N3CCOCC3=O)cc2)C(=O)O1)C(=O)c1ccc(Cl)s1 [Example 2, hydrochloride]
100%	100%	96%	84%	–	NCC(=O)SCCCCC(=O)N(C[C@H]1CN(c2ccc(N3CCOCC3=O)cc2)C(=O)O1)C(=O)c1ccc(Cl)s1 [Example 5, S-(5-{[(5-Chloro-2-thienyl)carbonyl]({(5S)-2-oxo-3-[4-(3-oxomorpholin-4-yl)phenyl]-1,3-oxazolidin-5-yl}methyl)amino}-5-oxopentyl)aminoethanethioate hydrochloride]
